Measured values from patent US9828379B2 (priority 2013, dated 2017).

What was measured:
FAAH [1] = biological target: T1, FAAH (Mus musculus, UniProt O08914); test: In vitro competitive activity-based protein profiling (Table 2, % inhibition at 1 μM); type: biochemical; conditions: read-out: % Inhibition at 1 μM FAAH
T1 sequence (O08914 1-579): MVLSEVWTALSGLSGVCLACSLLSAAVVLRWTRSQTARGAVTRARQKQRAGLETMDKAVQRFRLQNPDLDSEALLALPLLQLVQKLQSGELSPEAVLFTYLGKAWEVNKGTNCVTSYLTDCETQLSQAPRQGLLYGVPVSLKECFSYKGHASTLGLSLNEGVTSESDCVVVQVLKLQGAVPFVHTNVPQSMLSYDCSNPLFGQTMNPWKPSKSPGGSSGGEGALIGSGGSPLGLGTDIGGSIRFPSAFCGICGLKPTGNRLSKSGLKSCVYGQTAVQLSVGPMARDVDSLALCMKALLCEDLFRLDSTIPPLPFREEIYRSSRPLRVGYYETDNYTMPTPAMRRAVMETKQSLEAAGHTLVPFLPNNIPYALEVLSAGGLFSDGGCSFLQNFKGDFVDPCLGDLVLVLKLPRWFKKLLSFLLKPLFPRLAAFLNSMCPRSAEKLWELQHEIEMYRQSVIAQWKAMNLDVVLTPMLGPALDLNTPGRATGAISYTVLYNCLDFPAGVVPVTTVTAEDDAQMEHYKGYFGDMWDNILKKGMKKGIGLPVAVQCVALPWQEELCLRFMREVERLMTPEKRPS

ABHD6 [2] = biological target: T2, ABHD6 (Mus musculus, UniProt Q8R2Y0); test: as above; type: biochemical; conditions: read-out: % Inhibition at 1 μM ABHD6
T2 sequence (Q8R2Y0 1-336): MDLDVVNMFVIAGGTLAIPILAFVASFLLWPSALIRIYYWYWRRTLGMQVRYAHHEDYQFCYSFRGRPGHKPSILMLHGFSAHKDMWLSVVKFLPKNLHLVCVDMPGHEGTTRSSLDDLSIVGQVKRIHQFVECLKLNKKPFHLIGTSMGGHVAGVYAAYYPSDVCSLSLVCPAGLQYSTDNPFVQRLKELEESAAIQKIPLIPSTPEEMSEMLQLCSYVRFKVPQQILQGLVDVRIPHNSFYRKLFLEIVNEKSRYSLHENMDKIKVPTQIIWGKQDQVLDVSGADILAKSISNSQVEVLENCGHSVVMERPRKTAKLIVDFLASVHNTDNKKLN

FAAH [3] = biological target: T1, FAAH; test: biochemical; conditions: in vitro competitive ABPP
MAGL [4] = biological target: T3, MAGL (Mus musculus, UniProt O35678); test: biochemical; conditions: mouse; in vitro competitive ABPP; read-out: Mouse (IC50 value, nM) MAGL
T3 sequence (O35678 1-303): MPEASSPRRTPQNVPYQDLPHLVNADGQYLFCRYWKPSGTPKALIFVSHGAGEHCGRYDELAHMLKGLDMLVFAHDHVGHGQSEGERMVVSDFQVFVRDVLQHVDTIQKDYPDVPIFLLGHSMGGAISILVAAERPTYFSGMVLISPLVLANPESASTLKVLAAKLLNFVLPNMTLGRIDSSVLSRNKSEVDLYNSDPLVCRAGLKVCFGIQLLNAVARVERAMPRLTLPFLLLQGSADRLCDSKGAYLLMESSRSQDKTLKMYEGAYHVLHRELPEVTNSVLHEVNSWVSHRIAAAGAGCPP

ABHD6 [5] = biological target: T2, ABHD6; test: biochemical; conditions: in vitro competitive ABPP
MAGL [6] = biological target: T3, MAGL; test: In vitro competitive activity-based protein profiling (Table 2, % inhibition at 1 μM); type: biochemical; conditions: read-out: % Inhibition at 1 μM MAGL
Method: After 30 min, FP—Rh (1.0 μL, 50 μM in DMSO) was added and the mixture was incubated for another 30 min at 37° C. Reactions were quenched with SDS loading buffer (50 μL-4×) and run on SDS-PAGE.
Cell lysates were diluted with mock proteomes for use in competitive ABPP experiments.

Row | SMILES | inhibition at 1 µM (FAAH [1]) [%] | inhibition at 1 µM (ABHD6 [2]) [%] | IC50 (FAAH [3]) [nM] | IC50 (MAGL [4]) [nM] | IC50 (ABHD6 [5]) [nM] | inhibition at 1 µM (MAGL [6]) [%]
1 | C#CCNC(=O)c1nn(CC)cc1CN1CC2CN(C(=O)OC(C(F)(F)F)C(F)(F)F)CC2C1 (stereo not drawn) [Example 178, 1,1,1,3,3,3-hexafluoropropan-2-yl 5-((1-ethyl-3-(prop-2-yn-1-ylcarbamoyl)-1H-pyrazol-4-yl)methyl)hexahydropyrrolo[3,4-c]pyrrole-2(1H)-carboxylate] | < 25 | < 25 | > 10000 | 100 to 1000 | 1000 to 10000 | > 75
2 | O=C(OC(C(F)(F)F)C(F)(F)F)N1CC2CN(Cc3ccc(C(=O)N4CCCCC4)c(OC(F)(F)F)c3)CC2C1 (stereo not drawn) [Example 192, 1,1,1,3,3,3-hexafluoropropan-2-yl 5-(4-(piperidine-1-carbonyl)-3-(trifluoromethoxy)benzyl)hexahydropyrrolo[3,4-c]pyrrole-2(1H)-carboxylate] | < 25 | 25 to 75 | > 10000 | 100 to 1000 | 1000 to 10000 | > 75
3 | O=C(OC(C(F)(F)F)C(F)(F)F)N1CC2CN(Cc3ccc(C(=O)N4CCCC4)c(OC(F)(F)F)c3)CC2C1 (stereo not drawn) [Example 193, 1,1,1,3,3,3-hexafluoropropan-2-yl 5-(4-(pyrrolidine-1-carbonyl)-3-(trifluoromethoxy)benzyl)hexahydropyrrolo[3,4-c]pyrrole-2(1H)-carboxylate] | < 25 | 25 to 75 | > 10000 | 100 to 1000 | 1000 to 10000 | > 75
4 | CC1COCCN1c1cc(Cl)ccc1CN1CC2CN(C(=O)OC(C(F)(F)F)C(F)(F)F)CC2C1 (stereo not drawn) [Example 20, 1,1,1,3,3,3-Hexafluoropropan-2-yl 5-[[4-chloro-2-(3-methylmorpholin-4-yl)phenyl]methyl]-octahydropyrrolo[3,4-c]pyrrole-2-carboxylate] | < 25 | < 25 | 1000 to 10000 | < 100 | 1000 to 10000 | > 75
5 | O=C(ON1C(=O)CCC1=O)N1CC2CN(Cc3ccc(N4CCOCC4)cc3C(F)(F)F)CC2C1 (stereo not drawn) [Example 85, 2,5-Dioxopyrrolidin-1-yl 5-[[4-(morpholin-4-yl)-2-(trifluoromethyl)phenyl]methyl]-octahydropyrrolo[3,4-c]pyrrole-2-carboxylate] | 25 to 75 | < 25 | 100 to 1000 | 100 to 1000 | 1000 to 10000 | > 75
6 | O=C(ON1C(=O)CCC1=O)N1CC2CN(Cc3ccc(N4CCOCC4)cc3Cl)CC2C1 (stereo not drawn) [Example 80, 2,5-Dioxopyrrolidin-1-yl 5-(2-chloro-4-morpholinobenzyl)hexahydropyrrolo[3,4-c]pyrrole-2(1H)-carboxylate] | 25 to 75 | < 25 | 1000 to 10000 | 100 to 1000 | 1000 to 10000 | 25 to 75
7 | CCn1ncc(CN2CC3CN(C(=O)OC(C(F)(F)F)C(F)(F)F)CC3C2)c1C(=O)NCc1ccccc1 (stereo not drawn) [Example 75, 1,1,1,3,3,3-Hexafluoropropan-2-yl 5-((5-(benzylcarbamoyl)-1-ethyl-1H-pyrazol-4-yl)methyl)hexahydropyrrolo[3,4-c]pyrrole-2(1H)-carboxylate] | < 25 | > 75 | 1000 to 10000 | < 100 | 100 to 1000 | > 75
8 | O=C(ON1C(=O)CCC1=O)N1CC2CN(Cc3ccccc3-c3ccccc3)CC2C1 (stereo not drawn) [Example 87, 2,5-Dioxopyrrolidin-1-yl-5-[(2-phenylphenyl)methyl]-octahydropyrrolo[3,4-c]pyrrole-2-carboxylate] | 25 to 75 | 25 to 75 | 100 to 1000 | 100 to 1000 | 1000 to 10000 | > 75
9 | Cc1cccc(CN2CC3CN(C(=O)OC(C(F)(F)F)C(F)(F)F)CC3C2)c1N1CCCCC1 (stereo not drawn) [Example 30, 1,1,1,3,3,3-Hexafluoropropan-2-yl 5-[[3-methyl-2-(piperidin-1-yl)phenyl]methyl]-octahydropyrrolo[3,4-c]pyrrole-2-carboxylate] | < 25 | < 25 | > 10000 | 100 to 1000 | 1000 to 10000 | > 75
10 | CCn1cc(CN2CC3CN(C(=O)OC(C(F)(F)F)C(F)(F)F)CC3C2)c(-c2ccncc2)n1 (stereo not drawn) [Example 72, 1,1,1,3,3,3-Hexafluoropropan-2-yl 5-[[1-ethyl-3-(pyridin-4-yl)-1H-pyrazol-4-yl]methyl]-octahydropyrrolo[3,4-c]pyrrole-2-carboxylate] | < 25 | 25 to 75 | 1000 to 10000 | < 100 | 1000 to 10000 | > 75
11 | O=C(ON1C(=O)CCC1=O)N1CC2CN(Cc3ccc(N4CCOCC4)cc3F)CC2C1 (stereo not drawn) [Example 79, 2,5-Dioxopyrrolidin-1-yl 5-(2-fluoro-4-morpholinobenzyl)hexahydropyrrolo[3,4-c]pyrrole-2(1H)-carboxylate] | – | – | 1000 to 10000 | 1000 to 10000 | 1000 to 10000 | –
12 | CS(=O)(=O)NC1CCN(c2ccc(Cl)cc2CN2CC3CN(C(=O)OC(C(F)(F)F)C(F)(F)F)CC3C2)CC1 (stereo not drawn) [Example 6, 1,1,1,3,3,3-Hexafluoropropan-2-yl 5-(5-chloro-2-(4-(methylsulfonamido)piperidin-1-yl)benzyl)hexahydropyrrolo[3,4-c]pyrrole-2(1H)-carboxylate] | – | – | 1000 to 10000 | 100 to 1000 | 1000 to 10000 | –
13 | CC(=O)NC1CCN(c2ccc(Cl)cc2CN2CC3CN(C(=O)OC(C(F)(F)F)C(F)(F)F)CC3C2)CC1 (stereo not drawn) [Example 5, 1,1,1,3,3,3-Hexafluoropropan-2-yl 5-(2-(4-acetamidopiperidin-1-yl)-5-chlorobenzyl)hexahydropyrrolo[3,4-c]pyrrole-2(1H)-carboxylate] | – | – | 1000 to 10000 | 100 to 1000 | 1000 to 10000 | –
14 | CCn1ncc(CN2CC3CN(C(=O)OC(C(F)(F)F)C(F)(F)F)CC3C2)c1C(=O)N1CCOCC1 (stereo not drawn) [Example 73, 1,1,1,3,3,3-Hexafluoropropan-2-yl 5-((1-ethyl-5-(morpholine-4-carbonyl)-1H-pyrazol-4-yl)methyl)hexahydropyrrolo[3,4-c]pyrrole-2(1H)-carboxylate] | – | – | > 10000 | 100 to 1000 | > 10000 | –
15 | CC(=O)NC1CN(c2ccc(Cl)cc2CN2CC3CN(C(=O)OC(C(F)(F)F)C(F)(F)F)CC3C2)C1 (stereo not drawn) [Example 7, 1,1,1,3,3,3-Hexafluoropropan-2-yl 5-(2-(3-acetamidoazetidin-1-yl)-5-chlorobenzyl)hexahydropyrrolo[3,4-c]pyrrole-2(1H)-carboxylate] | – | – | 1000 to 10000 | < 100 | 1000 to 10000 | –
16 | Cn1cc(CN2CC3CN(C(=O)ON4C(=O)CCC4=O)CC3C2)c(-c2ccccc2)n1 (stereo not drawn) [Example 114, 2,5-Dioxopyrrolidin-1-yl 5-((1-methyl-3-phenyl-1H-pyrazol-4-yl)methyl)hexahydropyrrolo[3,4-c]pyrrole-2(1H)-carboxylate] | – | – | > 10000 | 100 to 1000 | 1000 to 10000 | –
17 | O=C(ON1C(=O)CCC1=O)N1CC2CN(Cc3ccc(C(=O)N4CCC4)cc3Cl)CC2C1 (stereo not drawn) [Example 165, 2,5-dioxopyrrolidin-1-yl5-(4-(azetidine-1-carbonyl)-2-chlorobenzyl)-hexahydropyrrolo[3,4-c]pyrrole-2(1H)-carboxylate] | < 25 | < 25 | – | – | – | 25 to 75
